Experimental data: patent US20240270821A1, “GIP/GLP1/GCG TRI-RECEPTOR AGONISTS AND USES THEREOF” (priority 2023, published 2024)
Where two headings read alike, the source gives them in different places. Starred links: 1 amine or outer side, 2 acyl side, 3 side chain; linkers in the order of their positions; H or OH if unused. Non-standard residues stand in square brackets, D forms with d. Groups on a side chain read outwards from the residue. *: point of attachment. C18 diacid = O=C(O)CCCCCCCCCCCCCCCCC(=O)*; αMePhe(2-F) = C[C@](N)(Cc1ccccc1F)C(=O)O; γGlu = O=C(O)[C@H](CCC(=O)[*:2])N[*:1]; αMe4Pal = C[C@](N)(Cc1ccncc1)C(=O)O; αMeY = C[C@](N)(Cc1ccc(O)cc1)C(=O)O; 4Pal = N[C@@H](Cc1ccncc1)C(=O)O; αMeL = CC(C)C[C@](C)(N)C(=O)O; αMeS = C[C@](N)(CO)C(=O)O; Orn = NCCC[C@H](N)C(=O)O; AEEA = NCCOCCOCC(=O)O; Aib = CC(C)(N)C(=O)O

How the values were obtained:
Format in all cases: cell-based
human GcgR = human GcgR (Homo sapiens, UniProt P47871); assay: Functional cAMP activity in the presence of 1% HSA; details: read-out: cAMP Rel EC50, hGcgR
hGIPR [1] = target: T1, hGIPR (Homo sapiens, UniProt P48546); assay: Functional cAMP activation in the presence of 0.1% casein (no HSA); details: read-out: Relative cAMP EC50, hGIPR;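 note: intracellular cAMP rise after 30 min at 37 °C read by HTRF against a standard curve, scaled between buffer alone (0%) and top control ligand concentration (100%), four-parameter fit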
T1 sequence (P48546 22-466): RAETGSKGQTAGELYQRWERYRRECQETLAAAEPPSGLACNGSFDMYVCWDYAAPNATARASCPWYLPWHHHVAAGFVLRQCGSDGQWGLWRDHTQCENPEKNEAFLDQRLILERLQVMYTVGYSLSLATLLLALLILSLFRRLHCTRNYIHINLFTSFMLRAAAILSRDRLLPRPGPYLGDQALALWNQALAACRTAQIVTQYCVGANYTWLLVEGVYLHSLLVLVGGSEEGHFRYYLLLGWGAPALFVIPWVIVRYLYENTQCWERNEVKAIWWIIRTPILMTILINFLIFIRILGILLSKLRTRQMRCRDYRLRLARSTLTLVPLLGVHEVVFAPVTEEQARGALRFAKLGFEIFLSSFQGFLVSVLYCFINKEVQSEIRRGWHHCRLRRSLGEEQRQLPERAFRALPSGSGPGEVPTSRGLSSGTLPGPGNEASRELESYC
Experimental: After a 30-minute incubation at 37° C., the resulting increase in intracellular cAMP is quantitatively determined using the CisBio CAMP Dynamic 2 HTRF Assay Kit (62AM4PEJ). Briefly, cAMP levels within the cell are detected by adding the cAMP-d2 conjugate in cell lysis buffer followed by the antibody anti-cAMP-Eu^3+-Cryptate, also in cell lysis buffer.
Intracellular cAMP levels are determined by extrapolation using a standard curve. Dose response curves of compounds are plotted as the percentage of stimulation normalized to minimum (buffer only) and maximum (maximum concentration of each control ligand) values and analyzed using a four parameter non-linear regression fit with a variable slope (Genedata Screener 13). EC50 is the concentration of compound causing half-maximal simulation in a dose response curve. Each relative EC50 value for the Geometric mean calculation is determined from a curve fitting.

hGLP-1R [2] = target: T2, hGLP-1R (Homo sapiens, UniProt P43220); assay: as above; details: read-out: Relative cAMP EC50, hGLP-1R;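 note: intracellular cAMP rise after 30 min at 37 °C read by HTRF, normalized between buffer only (0%) and maximal control ligand (100%), four-parameter variable-slope fit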
hGLP-1R [3] = target: T2, hGLP-1R; assay: Functional cAMP activity in the presence of 1% HSA; details: read-out: cAMP Rel EC50, hGLP-1R
hGIPR [4] = target: T1, hGIPR; assay: Functional cAMP activity in the presence of 1% HSA; details: read-out: cAMP Rel EC50, hGIPR
hGcgR = hGcgR (Homo sapiens, UniProt P47871); assay: Functional cAMP activation in the presence of 0.1% casein (no HSA); details: read-out: Relative cAMP EC50, hGcgR;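 note: intracellular cAMP rise after 30 min at 37 °C, read by HTRF against a cAMP standard curve, scaled from buffer only (0%) to maximal control ligand response (100%)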
[5] = 0.1% casein, no HSA, geometric mean
[6] = in the presence of 0.1% casein (no HSA), geometric mean

T2 sequence (P43220 24-463): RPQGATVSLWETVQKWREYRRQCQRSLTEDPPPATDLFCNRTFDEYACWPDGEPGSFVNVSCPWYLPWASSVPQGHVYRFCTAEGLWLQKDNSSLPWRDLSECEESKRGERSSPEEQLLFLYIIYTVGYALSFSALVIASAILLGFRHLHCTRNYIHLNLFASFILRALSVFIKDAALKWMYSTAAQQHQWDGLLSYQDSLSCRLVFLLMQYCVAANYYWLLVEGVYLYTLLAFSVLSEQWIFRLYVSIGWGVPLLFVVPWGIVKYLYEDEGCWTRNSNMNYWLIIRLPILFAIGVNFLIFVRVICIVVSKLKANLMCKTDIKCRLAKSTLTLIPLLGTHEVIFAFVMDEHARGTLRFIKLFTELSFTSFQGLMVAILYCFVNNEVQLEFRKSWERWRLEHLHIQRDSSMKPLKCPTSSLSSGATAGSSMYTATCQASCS
hGcgR, sequence (P47871 26-477): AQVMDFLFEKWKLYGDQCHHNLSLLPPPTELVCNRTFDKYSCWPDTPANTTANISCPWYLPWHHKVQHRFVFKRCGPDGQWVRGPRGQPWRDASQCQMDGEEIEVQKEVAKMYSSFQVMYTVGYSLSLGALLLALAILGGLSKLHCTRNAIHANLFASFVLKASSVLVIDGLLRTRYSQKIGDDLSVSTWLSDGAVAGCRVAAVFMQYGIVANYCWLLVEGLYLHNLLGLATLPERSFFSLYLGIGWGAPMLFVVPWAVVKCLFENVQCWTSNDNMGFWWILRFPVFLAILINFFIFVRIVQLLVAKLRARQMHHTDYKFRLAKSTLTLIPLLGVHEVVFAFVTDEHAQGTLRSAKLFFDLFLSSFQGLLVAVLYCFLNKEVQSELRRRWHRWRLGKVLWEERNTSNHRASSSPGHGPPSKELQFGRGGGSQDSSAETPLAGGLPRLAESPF
human GcgR, sequence (P47871 26-477): as above

Substance | EC50 (human GcgR) [nM] | EC50 (hGIPR [1]; [5]) [nM] | EC50 (hGLP-1R [2]; [5]) [nM] | EC50 (hGLP-1R [3]) [nM] | EC50 (hGIPR [4]) [nM] | EC50 (hGcgR; [5]) [nM] | EC50 (hGIPR [1]; [6]) [nM] | EC50 (hGLP-1R [2]; [6]) [nM] | EC50 (hGcgR; [6]) [nM] | EC50 (hGIPR [1]) [nM] | EC50 (hGLP-1R [2]) [nM] | EC50 (hGcgR) [nM]
H-Y[Aib]QGT[αMePhe(2-F)]TSD[4Pal][αMeS]I[αMeL]LD[Orn]K([AEEA-γGlu-C18 diacid])AQ[αMe4Pal]EFI[dE][αMeY]LIEGGPSSGAPPPEGGGEEE-NH2 [Example 1217] | 253 | 0.0101 | 0.751 | 62.7 | 1.06 | 1.98 | – | – | – | – | – | –
H-Y[Aib]QGT[αMePhe(2-F)]TSD[4Pal][αMeS]I[αMeL]LD[Orn]K([AEEA-γGlu-C18 diacid])AQ[αMe4Pal]EFI[dE][αMeY]LIEGGPSSGAPPPGGE-NH2 [Example 1144] | 196 | – | – | 36.5 | 0.72 | – | 0.00649 | 0.282 | 1.32 | – | – | –
H-Y[Aib]QGT[αMePhe(2-F)]TSD[4Pal][αMeS]I[αMeL]LD[Orn]K([AEEA-γGlu-C18 diacid])AQ[αMe4Pal]EFI[dE][αMeY]LIEGGPSSGAPPPSGE-NH2 [Example 1140] | 228 | – | – | 39.2 | 0.869 | – | 0.00821 | 0.323 | 1.56 | – | – | –
H-Y[Aib]QGT[αMePhe(2-F)]TSD[4Pal][αMeS]I[αMeL]LD[Orn]K([AEEA-γGlu-C18 diacid])AQ[αMe4Pal]EFI[dE][αMeY]LIEGGPSSGAPPPSGGGEE-NH2 [Example 1214] | 210 | 0.00851 | 0.55 | 50 | 0.771 | 1.85 | – | – | – | – | – | –
H-Y[Aib]QGT[αMePhe(2-F)]TSD[4Pal][αMeS]I[αMeL]LD[Orn]K([AEEA-γGlu-C18 diacid])AQ[αMe4Pal]EFI[dE][αMeY]LIEGGPSSGAPPPSGGGEEE-NH2 [Example 1215] | 272 | 0.0106 | 0.668 | 58.5 | 0.937 | 2.09 | – | – | – | – | – | –
H-Y[Aib]QGT[αMePhe(2-F)]TSD[4Pal][αMeS]I[αMeL]LD[Orn]K([AEEA-γGlu-C18 diacid])AQ[αMe4Pal]EFI[dE][αMeY]LIEGGPSSGAPPPSGSEE-NH2 [Example 713] | 180 | – | – | 37.7 | 0.879 | – | – | – | – | 0.00928 | 0.331 | 1.71
H-Y[Aib]QGT[αMePhe(2-F)]TSD[4Pal][αMeS]I[αMeL]LD[Orn]K([AEEA-γGlu-C18 diacid])AQ[αMe4Pal]EFI[dE][αMeY]LIEGGPSSGAPPPTGE-NH2 [Example 1142] | 203 | – | – | 38 | 0.748 | – | 0.00706 | 0.329 | 1.34 | – | – | –
H-Y[Aib]QGT[αMePhe(2-F)]TSD[4Pal][αMeS]I[αMeL]LD[Orn]K([AEEA-γGlu-C18 diacid])AQ[αMe4Pal]EFI[dE][αMeY]LIEGGPSSGEPPPEGE-NH2 [Example 1149] | 184 | – | – | 52.2 | 0.96 | – | 0.00804 | 0.352 | 1.37 | – | – | –
H-Y[Aib]QGT[αMePhe(2-F)]TSD[4Pal][αMeS]I[αMeL]LD[Orn]K([AEEA-γGlu-C18 diacid])AQ[αMe4Pal]EFI[dE][αMeY]LIEGGPSSGEPPPEGGGE-NH2 [Example 760] | 239 | – | – | 43.6 | 1.29 | – | – | – | – | 0.00722 | 0.395 | 1.59
H-Y[Aib]QGT[αMePhe(2-F)]TSD[4Pal][αMeS]I[αMeL]LD[Orn]K([AEEA-γGlu-C18 diacid])AQ[αMe4Pal]EFI[dE][αMeY]LIEGGPSSGEPPPGGE-NH2 [Example 1145] | 148 | – | – | 39.1 | 0.848 | – | 0.00689 | 0.313 | 1.07 | – | – | –
H-Y[Aib]QGT[αMePhe(2-F)]TSD[4Pal][αMeS]I[αMeL]LD[Orn]K([AEEA-γGlu-C18 diacid])AQ[αMe4Pal]EFI[dE][αMeY]LIEGGPSSGEPPPTGE-NH2 [Example 1143] | 182 | – | – | 49.6 | 0.751 | – | 0.0087 | 0.381 | 1.42 | – | – | –
H-Y[Aib]QGT[αMePhe(2-F)]TSD[4Pal][αMeS]I[αMeL]LD[Orn]K([AEEA-γGlu-C18 diacid])AQ[αMe4Pal]EFI[dE][αMeY]LVEGGPSSGAPPPEGE-NH2 [Example 1158] | 301 | – | – | 46.8 | 1.42 | – | 0.0126 | 0.419 | 2.19 | – | – | –
H-Y[Aib]QGT[αMePhe(2-F)]TSD[4Pal][αMeS]I[αMeL]LD[Orn]K([AEEA-γGlu-C18 diacid])AQ[αMe4Pal]EFI[dE][αMeY]LVEGGPSSGAPPPESE-NH2 [Example 1156] | 337 | – | – | 47.1 | 1.33 | – | 0.0127 | 0.444 | 2.94 | – | – | –
H-Y[Aib]QGT[αMePhe(2-F)]TSD[4Pal][αMeS]I[αMeL]LD[Orn]K([AEEA-γGlu-C18 diacid])AQ[αMe4Pal]EFI[dE][αMeY]LVEGGPSSGAPPPGGE-NH2 [Example 1154] | 320 | – | – | 44.5 | 0.954 | – | 0.00879 | 0.344 | 6.42 | – | – | –
H-Y[Aib]QGT[αMePhe(2-F)]TSD[4Pal][αMeS]I[αMeL]LD[Orn]K([AEEA-γGlu-C18 diacid])AQ[αMe4Pal]EFI[dE][αMeY]LVEGGPSSGAPPPSGE-NH2 [Example 749] | 28 | – | – | 33.9 | 1.47 | – | – | – | – | 0.00718 | 0.293 | 2.21
H-Y[Aib]QGT[αMePhe(2-F)]TSD[4Pal][αMeS]I[αMeL]LD[Orn]K([AEEA-γGlu-C18 diacid])AQ[αMe4Pal]EFI[dE][αMeY]LVEGGPSSGAPPPSGSE-NH2 [Example 751] | 267 | – | – | 32.3 | 1.27 | – | – | – | – | 0.00759 | 0.302 | 1.9
H-Y[Aib]QGT[αMePhe(2-F)]TSD[4Pal][αMeS]I[αMeL]LD[Orn]K([AEEA-γGlu-C18 diacid])AQ[αMe4Pal]EFI[dE][αMeY]LVEGGPSSGAPPPTGE-NH2 [Example 1152] | 287 | – | – | 43.8 | 1.21 | – | 0.0101 | 0.371 | 2.32 | – | – | –
H-Y[Aib]QGT[αMePhe(2-F)]TSD[4Pal][αMeS]I[αMeL]LD[Orn]K([AEEA-γGlu-C18 diacid])AQ[αMe4Pal]EFI[dE][αMeY]LVEGGPSSGEPPPEGE-NH2 [Example 1159] | 238 | – | – | 64.1 | 1.29 | – | 0.0118 | 0.45 | 1.86 | – | – | –
H-Y[Aib]QGT[αMePhe(2-F)]TSD[4Pal][αMeS]I[αMeL]LD[Orn]K([AEEA-γGlu-C18 diacid])AQ[αMe4Pal]EFI[dE][αMeY]LVEGGPSSGEPPPESE-NH2 [Example 1157] | 384 | – | – | 57.5 | 1.28 | – | 0.0124 | 0.408 | 2.04 | – | – | –
H-Y[Aib]QGT[αMePhe(2-F)]TSD[4Pal][αMeS]I[αMeL]LD[Orn]K([AEEA-γGlu-C18 diacid])AQ[αMe4Pal]EFI[dE][αMeY]LVEGGPSSGEPPPGGE-NH2 [Example 1155] | 288 | – | – | 44.4 | 0.888 | – | 0.00917 | 0.434 | 1.83 | – | – | –
H-Y[Aib]QGT[αMePhe(2-F)]TSD[4Pal][αMeS]I[αMeL]LD[Orn]K([AEEA-γGlu-C18 diacid])AQ[αMe4Pal]EFI[dE][αMeY]LVEGGPSSGEPPPSGE-NH2 [Example 750] | 205 | – | – | 39.1 | 1.34 | – | – | – | – | 0.00784 | 0.302 | 2
H-Y[Aib]QGT[αMePhe(2-F)]TSD[4Pal][αMeS]I[αMeL]LD[Orn]K([AEEA-γGlu-C18 diacid])AQ[αMe4Pal]EFI[dE][αMeY]LVEGGPSSGEPPPSGSE-NH2 [Example 752] | 228 | – | – | 44 | 1.74 | – | – | – | – | 0.00689 | 0.274 | 1.9
H-Y[Aib]QGT[αMePhe(2-F)]TSD[4Pal][αMeS]I[αMeL]LD[Orn]K([AEEA-γGlu-C18 diacid])AQ[αMe4Pal]EFI[dE][αMeY]LVEGGPSSGEPPPSGSEE-NH2 [Example 736] | 245 | – | – | 46.3 | 1.23 | – | – | – | – | 0.014 | 0.489 | 2.85
